Measured values from the RepoRT retention time repository (doi:10.1021/es4044374).

Assay: RP, Waters XBridge C18, 50 × 2.1 mm, 3.5 µm, 30 °C, 0.2 mL/min, estimated dead time 0.55 min; A: water + 0.1% formic acid, pH 3; B: methanol + 0.1% formic acid, pH 3; gradient (min/%B) 0/10 4/50 17/95 25/95 25.1/10 30/10
Settings: stereoisomer not certain

SMILES	LC retention time
CCC(=O)C(CC(C)N(C)C)(c1ccccc1)c1ccccc1 (stereo not given) [Methadone]	8.4 min
CNC(C)Cc1ccccc1 (stereo not given) [Methamphetamine]	3.7 min
CNC(=O)Oc1cc(C)c(S(C)=O)c(C)c1 (stereo not given) [Methiocarb-sulfoxide]	4.9 min
CNC(=O)Oc1cc(C)c(SC)c(C)c1 [Methiocarb]	10.4 min
CNC(=O)ON=C(C)SC [Methomyl]	3.6 min
COc1cccc(C(=O)NN(C(=O)c2cc(C)cc(C)c2)C(C)(C)C)c1C [Methoxyfenozide]	10.9 min
CCN(CC)CCNC(=O)c1cc(Cl)c(N)cc1OC [Metoclopramide]	4.3 min
CCc1cccc(C)c1N(C(=O)CS(=O)(=O)O)C(C)COC (stereo not given) [Metolachlor ESA]	7.8 min
CCc1cccc(C)c1N(C(=O)C(=O)O)C(C)COC (stereo not given) [Metolachlor OXA]	9.3 min
CCc1cccc(C)c1N(C(=O)CCl)C(C)COC (stereo not given) [Metolachlor]	11.8 min
CC(C)(C)c1n[nH]c(=O)n(N)c1=O [Metribuzin-diketo]	5.9 min
CSc1nnc(C(C)(C)C)c(=O)n1N [Metribuzin]	6.9 min
COC(=O)c1ccccc1S(=O)(=O)NC(=O)Nc1nc(C)nc(OC)n1 [Metsulfuron-methyl]	7.1 min
C=C1C(=O)NC(C)C(=O)NC(CC(C)C)C(=O)NC(C(=O)O)C(C)C(=O)NC(CCCN=C(N)N)C(=O)NC(C=CC(C)=CC(C)C(Cc2ccccc2)OC)C(C)C(=O)NC(C(=O)O)CCC(=O)N1C (stereo not given) [Microcystin-LR]	10.2 min
CN(C)C(=O)Nc1ccc(Cl)cc1 [Monuron]	6.7 min
CN1CCC23c4c5ccc(O)c4OC2C(O)C=CC3C1C5 (stereo not given) [Morphine]	1.1 min
CCCCC(C#N)(Cn1cncn1)c1ccc(Cl)cc1 (stereo not given) [Myclobutanil]	11.2 min
COc1cc(OC)nc(NS(=O)(=O)c2ccc(NC(C)=O)cc2)n1 [N4-Acetylsulfadimethoxine]	6.3 min
CC(=O)Nc1ccc(S(=O)(=O)Nc2nc(C)cc(C)n2)cc1 [N4-Acetylsulfamethazine]	4.5 min
CN=CNc1ccc(C)cc1C [N'-(2,4-Dimethylphenyl)-N-methylformamidine]	4.5 min
CN(C)S(N)(=O)=O [N,N-Dimethylsulfamide]	1.1 min
CNCC(c1ccc(O)cc1)C1(O)CCCCC1 (stereo not given) [N,O-Didesmethylvenlafaxine]	4.9 min

Now from value to compound:

LC retention time	SMILES
9.2 min	CC1CC2C(C(O)CC3(C)C2CCC3(O)C(=O)CO)C2(C)C=CC(=O)C=C12 (stereo not given) [Methylprednisolone]
8.2 min	CCc1cccc(C)c1N1C(=O)COCC1C (stereo not given) [Metolachlor morpholinone]
5.1 min	COCCc1ccc(OCC(O)CNC(C)C)cc1 (stereo not given) [Metoprolol]
2.1 min	Cc1ncc([N+](=O)[O-])n1CCO [Metronidazole]
4.5 min	O=C(NCCN1CCOCC1)c1ccc(Cl)cc1 [Moclobemide]
9.9 min	COc1c(C)c2c(c(O)c1CC=C(C)CCC(=O)O)C(=O)OC2 [Mycophenolic acid]
3.6 min	CC(=O)Nc1ccc(S(=O)(=O)Nc2ncccn2)cc1 [N4-Acetylsulfadiazine]
5.5 min	CC(=O)Nc1ccc(S(=O)(=O)Nc2cc(C)on2)cc1 [N4-Acetylsulfamethoxazole]
4.1 min	CC(=O)Nc1ccc(S(=O)(=O)Nc2nccs2)cc1 [N4-Acetylsulfathiazole]
6.3 min	COc1ccc(C(CN)C2(O)CCCCC2)cc1 (stereo not given) [N,N-Didesmethylvenlafaxine]
7.5 min	Cc1ccc(NS(=O)(=O)N(C)C)cc1 [N,N-Dimethyl-N'-p-tolylsulphamide]
6.3 min	CN(C)S(=O)(=O)Nc1ccccc1 [N,N-Dimethyl-N'-phenylsulfamide]
6.3 min	CNCC(c1ccc(OC)cc1)C1(O)CCCCC1 (stereo not given) [N-Desmethylvenlafaxine]
